Test results reported in patent US20260274853A1, “BIFUNCTIONAL COMPOUNDS CONTAINING PYRIMIDINE DERIVATIVES FOR DEGRADING CYCLIN-DEPENDENT KINASE 2 VIA UBIQUITIN PROTEASOME PATHWAY” (NIKANG THERAPEUTICS, INC., priority 2022, published 2026).

Tests used:
CDK2 [1] = biological target: T1, CDK2 (Homo sapiens, UniProt P24941); assay: Inhibition of CDK2: phospho-Rb (S807/811) HTRF measurement in OVCAR3 cells; format: cell-based; settings: 24 h compound treatment, read-out: pRb (nM), IC50 in pRB(S807/811) assay
T1 construct: High-Throughput Measurement of Cellular Endogenous CDK2; endogenous in cells; host or cells: OVCAR3
Method: Phosphorylation of RB protein at S807/811 were measured using HTRF phospho-RB cellular kits (Cat #64RBS807PEG) from Cisbio.
On Day 1, OVCAR3 (dependent on CDK2) cells were seeded into 96-well tissue-culture treated plates at 20,000 cells/well in 200 μL and incubated overnight at 37° C. in CO2 atmosphere. On Day 2, the cells were treated with test compounds at concentrations from 0.3 to 10,000 nM using HP D300 digital dispenser. Twenty-four hours after compound treatment, cell culture media was removed by flicking the plate and tapping the plate against clean paper towel. Immediately 30 μL 1× lysis buffer was supplemented from the kit and the plate was incubated at room temperature on shaker for 30 min. After homogenization by pipetting up and down, 8 μL cell lysate from 96-well cell culture plate was transferred to 384-well small volume white detection plate. 2 μL premixed detection solution was added and the plate was covered with sealer. To prepare the detection solution, d2 conjugated-phospho-RB antibody and Eu-cryptate conjugated phosphor-RB antibody were diluted into detection buffer following manufacturer's instruction. Detection plates were incubated for 4 h at room temperature and read on ClarioStar (BMG Labtech) in TR-FRET mode (665 nM and 620 nM). The TR-FRET ratio (665 nM/620 nM) was plotted against the compound concentration and normalized to DMSO controls. Half maximal inhibition concentration (IC50) values are calculated with a four-parameter logistic fit using GraphPad Prism (version 8; La Jolla, CA).
In the table below, A indicates a IC50 of less than 0.1 μM; B indicates a IC50 of greater than or equal to 0.1 μM but less than 0.5 μM; C indicates a IC50 of greater than or equal to 0.5 μM but less than 1 μM; and D indicates a […] of greater than or equal to 1 μM but less than 10 μM.

CDK2 [2] = biological target: T1, CDK2; assay: CDK2 HTRF assay: cellular endogenous CDK2 level in OVCAR3 cells; format: cell-based; settings: 24 hours compound treatment, read-out: DC50 (half maximal degradation concentration of CDK2)
Method: Effects of compounds on cellular CDK2 level can be monitored by a high-throughput HTRF assay or traditional Western Blot assay.
To determine half maximal degradation concentration (DC50) values of compounds, cellular CDK2 level was measured in 96-well format using HTRF total CDK2 cellular kit (Cat #64CDK2TPEG) from Cisbio.
On Day 1, OVCAR3 cells were seeded into 96-well tissue-culture treated plates at 20,000 cells/well in 200 μL and incubated overnight at 37° C. in CO2 atmosphere. On Day 2 cells were treated with compounds at concentration ranging from 0.3 to 10,000 nM using HP D300 digital dispenser. 24 hours after compound treatment, cell culture media was removed by flicking the plate and tapping the plate against clean paper towel. Immediately 30 μL 1× lysis buffer was supplemented from the kit and the plate was incubated at room temperature on shaker for 30 min. After homogenization by pipetting up and down, 8 μL cell lysate from 96-well cell culture plate was transferred to 384-well small volume white detection plate. 2 μL premixed detection solution was added and the plate was covered with sealer. To prepare the detection solution, d2 conjugated-CDK2 antibody and Eu-cryptate conjugated CDK2 antibody were diluted into detection buffer following manufacturer's instruction. Detection plates were incubated overnight at room temperature and read on ClarioStar (BMG Labtech) in TR-FRET mode (665 nM and 620 nM). The TR-FRET ratio (665 nM/620 nM) was plotted against the compound concentration and normalized to DMSO controls. Half maximal degradation concentration (DC50) values were calculated with a four-parameter logistic fit using GraphPad Prism (version 8; La Jolla, CA).
In the table below, A indicates a DC50 of less than 0.1 μM; B indicates a DC50 of greater than or equal to 0.1 μM but less than 0.5 μM; C indicates a DC50 of greater than or equal to 0.5 μM but less than 1 μM; and D indicates a DC50 of greater than or equal to 1 μM but less than 10 μM.

Compound: O=C1CCC(c2ccc(N3CC4CCC(C3)N4Cc3cccc(S(=O)(=O)N4CCC(Nc5ncc(C(F)(F)F)c(-c6cnn(CC(F)(F)F)c6)n5)CC4)c3)cc2)C(=O)N1 (centres unmarked) [Example 18, 3-(4-(8-(3-((4-((4-(1-(2,2,2-trifluoro-ethyl)-1H-pyrazol-4-yl)-5-(trifluoro-methyl)pyrimidin-2-yl)amino)-piperidin-1-yl)sulfonyl)benzyl)-3,8-diazabicyclo-[3.2.1]octan-3-yl)phenyl)-piperidine-2,6-dione]
- IC50 (CDK2 [1]): < 100 nM
- DC50 (CDK2 [2]): < 100 nM

Compound: O=C1CCC(Nc2ccc(C3CCN(Cc4cccc(S(=O)(=O)N5CCC(Nc6ncc(C(F)(F)F)c(-c7cnn(CC(F)(F)F)c7)n6)CC5)c4)CC3)cc2)C(=O)N1 (centres unmarked) [Example 11, 3-((4-(1-(3-((4-((4-(1-(2,2,2-trifluoro-ethyl)-1H-pyrazol-4-yl)-5-(trifluoro-methyl)pyrimidin-2-yl)amino)-piperidin-1-yl)sulfonyl)benzyl)piperidin-4-yl)-phenyl)amino)-piperidine-2,6-dione]
- IC50 (CDK2 [1]): < 100 nM
- DC50 (CDK2 [2]): < 100 nM

Compound: O=C1CCC(c2ccc(N3CCN(Cc4cccc(S(=O)(=O)N5CCC(Nc6ncc(C(F)(F)F)c(-c7cnn(CC(F)(F)F)c7)n6)CC5)c4)CC3)c(F)c2)C(=O)N1 (centres unmarked) [Example 14, 3-(3-fluoro-4-(4-(3-((4-((4-(1-(2,2,2-trifluoroethyl)-1H-pyrazol-4-yl)-5-(trifluoromethyl)pyrimidin-2-yl)-amino)piperidin-1-yl)sulfonyl)benzyl)-piperazin-1-yl)phenyl)piperidine-2,6-dione]
- IC50 (CDK2 [1]): < 100 nM
- DC50 (CDK2 [2]): < 100 nM

Compound: Cn1cc(-c2nc(NC3CCN(S(=O)(=O)c4cccc(CN5CCN(c6cc7c(cc6F)C(=O)N(C6CCC(=O)NC6=O)C7=O)CC5)c4)CC3)ncc2C(F)(F)F)cn1 (centres unmarked) [Example 5, 2-(2,6-dioxopiperidin-3-yl)-5-fluoro-6-(4-(3-((4-((4-(1-methyl-1H-pyrazol-4-yl)-5-(trifluoromethyl)pyrimidin-2-yl)-amino)piperidin-1-yl)sulfonyl)-benzyl)-piperazin-1-yl)isoindoline-1,3-dione]
- IC50 (CDK2 [1]): < 100 nM
- DC50 (CDK2 [2]): 100 to 500 nM

Compound: O=C1CCC(c2ccc(N3CCN(Cc4cccc(S(=O)(=O)N5CCC(Nc6ncc(C(F)(F)F)c(-c7cnn(CC(F)(F)F)c7)n6)CC5)c4)CC3)c(C(F)(F)F)c2)C(=O)N1 (centres unmarked) [Example 23, 3-(4-(4-(3-((4-((4-(1-(2,2,2-trifluoro-ethyl)-1H-pyrazol-4-yl)-5-(trifluoro-methyl)pyrimidin-2-yl)amino)-piperidin-1-yl)sulfonyl)benzyl)-piperazin-1-yl)-3-(trifluoromethyl)-phenyl)piperidine-2,6-dione]
- IC50 (CDK2 [1]): 100 to 500 nM
- DC50 (CDK2 [2]): 100 to 500 nM

Compound: O=C1CCC(NC2CCN(Cc3cccc(S(=O)(=O)N4CCC(Nc5ncc(C(F)(F)F)c(-c6cnn(CC(F)(F)F)c6)n5)CC4)c3)CC2)C(=O)N1 (centres unmarked) [Example 72, 3-((1-(3-((4-((4-(1-(2,2,2-trifluoro-ethyl)-1H-pyrazol-4-yl)-5-(trifluoromethyl)-pyrimidin-2-yl)amino)-piperidin-1-yl)-sulfonyl)benzyl)piperidin-4-yl)amino)-piperidine-2,6-dione]
- IC50 (CDK2 [1]): < 100 nM
- DC50 (CDK2 [2]): < 100 nM

Compound: O=C1CCN(c2ccc(N3CCN(Cc4cccc(S(=O)(=O)N5CCC(Nc6ncc(C(F)(F)F)c(-c7cnn(CC(F)(F)F)c7)n6)CC5)c4)CC3)c(C(F)(F)F)c2)C(=O)N1 [Example 16, 1-(4-(4-(3-((4-((4-(1-(2,2,2-trifluoro-ethyl)-1H-pyrazol-4-yl)-5-(trifluoro-methyl)pyrimidin-2-yl)amino)-piperidin-1-yl)sulfonyl)benzyl)-piperazin-1-yl)-3-(trifluoromethyl)-phenyl)dihydro-pyrimidine-2,4(1H,3H)-dione]
- IC50 (CDK2 [1]): 1000 to 10000 nM
- DC50 (CDK2 [2]): 1000 to 10000 nM

Compound: O=C1CCC(c2ccc(N3CCN(Cc4cccc(S(=O)(=O)N5CCC(Nc6ncc(C(F)(F)F)c(-c7cnn(CC(F)(F)F)c7)n6)[C@H](F)C5)c4)CC3)cc2)C(=O)N1 (mixture of isomers) [Example 19, Rac-3-(4-(4-(3-(((3R,4S)-3-fluoro-4-((4-(1-(2,2,2-trifluoroethyl)-1H-pyrazol-4-yl)-5-(trifluoromethyl)pyrimidin-2-yl)-amino)piperidin-1-yl)sulfonyl)benzyl)-piperazin-1-yl)-phenyl)piperidine-2,6-dione]
- IC50 (CDK2 [1]): < 100 nM
- DC50 (CDK2 [2]): < 100 nM

Compound: CC(Cc1cccc(S(=O)(=O)N2CCC(Nc3ncc(C(F)(F)F)c(-c4cnn(-c5ccccc5F)c4)n3)CC2)c1)N1CCC(c2ccc3c(N4CCC(=O)NC4=O)nn(C)c3c2)CC1 (centres unmarked) [Example 96, 1-(6-(1-(1-(3-((4-((4-(1-(2-fluoro-phenyl)-1H-pyrazol-4-yl)-5-(trifluoro-methyl)pyrimidin-2-yl)amino)-piperidin-1-yl)sulfonyl)phenyl)propan-2-yl)-piperidin-4-yl)-1-methyl-1H-indazol-3-yl)dihydropyrimidine-2,4(1H,3H)-dione]
- IC50 (CDK2 [1]): < 100 nM
- DC50 (CDK2 [2]): < 100 nM

Compound: Cn1nc(N2CCC(=O)NC2=O)c2ccc(C3CCN(CC4CCCC(S(=O)(=O)N5CCC(Nc6ncc(C(F)(F)F)c(-c7cnn(CC(F)(F)F)c7)n6)CC5)C4)CC3)cc21 (centres unmarked) [Example 89, 1-(1-methyl-6-(1-((3-((4-((4-(1-(2,2,2-trifluoroethyl)-1H-pyrazol-4-yl)-5-(trifluoromethyl)pyrimidin-2-yl)amino)-piperidin-1-yl)sulfonyl)-cyclohexyl)-methyl)piperidin-4-yl)-1H-indazol-3-yl)dihydropyrimidine-2,4(1H,3H)-dione]
- IC50 (CDK2 [1]): < 100 nM
- DC50 (CDK2 [2]): < 100 nM

Compound: O=C1CCN(c2ccc(N3CCN(Cc4cccc(S(=O)(=O)N5CCC(Nc6ncc(C(F)(F)F)c(-c7cnn(CC(F)(F)F)c7)n6)CC5)c4)CC3)nc2)C(=O)N1 [Example 41, 1-(6-(4-(3-((4-((4-(1-(2,2,2-trifluoro-ethyl)-1H-pyrazol-4-yl)-5-(trifluoro-methyl)pyrimidin-2-yl)amino)-piperidin-1-yl)sulfonyl)benzyl)-piperazin-1-yl)pyridin-3-yl)dihydro-pyrimidine-2,4(1H,3H)-dione]
- IC50 (CDK2 [1]): < 100 nM
- DC50 (CDK2 [2]): < 100 nM

Compound: Cn1nc(N2CCC(=O)NC2=O)c2ccc(C3CCN(Cc4cc(S(=O)(=O)N5CCC(Nc6ncc(C(F)(F)F)c(-c7cnn(CC(F)(F)F)c7)n6)CC5)ccc4F)CC3)cc21 [Example 61, 1-(6-(1-(2-fluoro-5-((4-((4-(1-(2,2,2-trifluoroethyl)-1H-pyrazol-4-yl)-5-(trifluoromethyl)pyrimidin-2-yl)-amino)piperidin-1-yl)sulfonyl)benzyl)-piperidin-4-yl)-1-methyl-1H-indazol-3-yl)dihydropyrimidine-2,4(1H,3H)-dione]
- IC50 (CDK2 [1]): < 100 nM
- DC50 (CDK2 [2]): < 100 nM

Compound: Cn1c(=O)n(C2CCC(=O)NC2=O)c2cccc(C3CCN(Cc4cccc(S(=O)(=O)N5CCC(Nc6ncc(C(F)(F)F)c(-c7cnn(CC(F)(F)F)c7)n6)CC5)c4)CC3)c21 (centres unmarked) [Example 8, 3-(3-methyl-2-oxo-4-(1-(3-((4-((4-(1-(2,2,2-trifluoroethyl)-1H-pyrazol-4-yl)-5-(trifluoromethyl)pyrimidin-2-yl)amino)-piperidin-1-yl)sulfonyl)-benzyl)-piperidin-4-yl)-2,3-dihydro-1H-benzo[d]-imidazol-1-yl)piperidine-2,6-dione]
- IC50 (CDK2 [1]): < 100 nM
- DC50 (CDK2 [2]): < 100 nM
